Source: patent USRE40259E1, “Alpha-aminoamide derivatives useful as analgesic agents” (Newron Pharmaceuticals, S.p.A., priority 1997, dated 2008)
Marks after values point to notes of the source that are not given here.

Experiments:
Format in all cases: in vivo
Male NMRI CD-1 mice = assay: Formalin test (formalin nociception test in mice); details: for Licking time, Acute phase / Licking time, Chronic phase: 60 min before formalin, mice; for Licking time, Acute phase: acute phase 0-5 min; for Licking time, Chronic phase: chronic phase 30-40 min; for Effect on cumulative licking time in both phases of the formalin test: 7.5-60.0 mg/kg po, result in words
From the text: Formalin test is a useful tool for obtaining neurogenic inflammation and continuous pain (Shibata et al, Pain, 38: 347-352, 1989).
Formalin produces a distinct biphasic response. The early phase seems to be caused predominantly by C-fibre activation due to peripheral stimulus, while the late phase appears to be dependent on the combination of an inflammatory reaction in the peripheral tissue and functional changes in the dorsal horn of the spinal cord. This functional changes seem to be initiated by the C-fibre barrage during the early phase (Tjolsen et al. Pain 51, 5-17, 1992). Substance P and bradykinin participate in the early phase, while histamine, serotonin, prostaglandins and bradykinin are involved in the late phase.
Male NMRI CD-1 mice (22-25 g) were injected with […] μl of 2.7% solution of formalin into the right hindpaw and placed immediately into observation chambers. The cumulative licking time of the injected paw was recorded in the acute phase (0-5 min) and in the chronic phase (30-40 min) of the nociceptive response of formalin.
The two representative compounds of the invention (S)-2-[4-(3- fluorobenzyloxy)benzylamino]-propanamide, methanesulfonate (internal code PNU 151774E) and (S)-[2-[4-(3-fluorobenzyloxy)benzylamino]-2-methyl-propanamide […] were administered 60 min before formalin injection at the doses of 7.5, 15.0, 30.0 and 60.0 mg/kg; po. Morphine (5 mg/kg; sc) was used as a positive standard. The activities data were analysed by Dunnett's t-test.

mice [1] = assay: Rotarod (motor co-ordination); details: for Rotarod co-ordination (mice fallen/total mice): 2 min on rotarod; for Effect on rotarod activity: 7.5-60.0 mg/kg po, result in words
Experimental: (§1) The effects of these compounds on locomotor activity and rotarod (a test for evaluating motor co-ordination) were studied in order to exclude changes in these parameters as confounding factors in the evaluation of the formalin response. The locomotor activity test lasted 15 min. Five minutes after testing locomotor activity, the mice were put on the rotarod for 2 min and the number of mice falling within this time were counted. Compounds PNU 151774E and PNU 156654E were tested at the doses of 7.5, 15.0, 30.0 and 60.0 mg/kg; po. The compounds were administered 60 min before locomotor activity test.

mice [2] = assay: Locomotor activity test; details: for Locomotor activity counts (mean ± sem): 60 min before test, 15 min test, mice; for Effect on locomotor activity: 7.5-60.0 mg/kg po, result in words
Experimental: as §1

Row | Locomotor activity counts (mean ± sem) (mice [2]; 7.5 mg/kg po) [counts] | Locomotor activity counts (mean ± sem) (mice [2]; 15 mg/kg po) [counts] | Locomotor activity counts (mean ± sem) (mice [2]; 30 mg/kg po) [counts] | Locomotor activity counts (mean ± sem) (mice [2]; 60 mg/kg po) [counts] | Effect on locomotor activity (mice [2]) | Compound | Licking time, Acute phase (Male NMRI CD-1 mice; 7.5 mg/kg po) | Licking time, Chronic phase (Male NMRI CD-1 mice; 7.5 mg/kg po) | Licking time, Acute phase (Male NMRI CD-1 mice; 15.0 mg/kg po) | Licking time, Chronic phase (Male NMRI CD-1 mice; 15.0 mg/kg po) | Licking time, Acute phase (Male NMRI CD-1 mice; 30.0 mg/kg po) | Licking time, Chronic phase (Male NMRI CD-1 mice; 30.0 mg/kg po) | Licking time, Acute phase (Male NMRI CD-1 mice; 60.0 mg/kg po) | Licking time, Chronic phase (Male NMRI CD-1 mice; 60.0 mg/kg po) | Effect on cumulative licking time in both phases of the formalin test (Male NMRI CD-1 mice) | Rotarod co-ordination (mice fallen/total mice) (mice [1]; 7.5 mg/kg po) | Rotarod co-ordination (mice fallen/total mice) (mice [1]; 15 mg/kg po) | Rotarod co-ordination (mice fallen/total mice) (mice [1]; 30 mg/kg po) | Rotarod co-ordination (mice fallen/total mice) (mice [1]; 60 mg/kg po) | Effect on rotarod activity (mice [1])
1 | 2908 ± 234 | 2795 ± 255 | 2347 ± 203 | 2240 ± 195 | without any effect | C[C@H](NCc1ccc(OCc2cccc(F)c2)cc1)C(N)=O [PNU 151774E, (S)-2-[4-(3-fluorobenzyloxy)benzylamino]-propanamide, methanesulfonate] | 137.9 ± 2.4^a sec | 72.4 ± 2.4^ sec | 87.9 ± 3.3^a sec | 64.3 ± 2.8^b sec | 79.4 ± 3.0^a sec | 56.9 ± 2.6^a sec | 63.1 ± 2.6^a sec | 38.1 ± 3.6^a sec | dose-dependently reduced cumulative licking time in both phases | 0/10 | 0/10 | 0/10 | 0/10 | without any effect
2 | 1966 ± 188 | 2110 ± 256 | 2272 ± 317 | 2119 ± 310 | without any effect | CC(C)(NCc1ccc(OCc2cccc(F)c2)cc1)C(N)=O [PNU 156654E, 2-[4-(3-fluorobenzyloxy)benzylamino]-2-methyl-propanamide] | 108.4 ± 4.2^ sec | 62.4 ± 3.6^ sec | 79.7 ± 3.7^a sec | 42.1 ± 6.2^a sec | 60.0 ± 2.3^a sec | 37.7 ± 6.9^a sec | 44.4 ± 4.2^a sec | 17.3 ± 6.6^a sec | dose-dependently reduced cumulative licking time in both phases | 0/10 | 0/10 | 0/10 | 0/10 | without any effect
